# Measured values taken from paper PMC8655237 (Journal of Advanced Research, 2021).
# Like-named read-outs stand apart in the source and are kept apart here.
# Tests used:
# [1] = tested on: panel of organ-specific human cancer and normal cell lines; test: Antiproliferative activity over the cell line panel; type: cell-based; conditions: read-out: IC50 range in all the tested assay systems
# [2] = target: Cathepsin D (CATD) (Homo sapiens, UniProt P07339); test: Cathepsin D assay, cell-free
# [3] = tested on: CAT D mRNA; test: Real-time qPCR expression analysis; type: cell-based, human; conditions: GAPDH internal control
# [4] = tested on: AKT; test: AKT quantification by ELISA in A431 cells; type: cell-based, human; conditions: A431, 100 µM, 24 h
# [5] = Acute oral toxicity; type: in vivo, Swiss albino mice; conditions: up to 1000 mg/kg body weight
# [6] = ref https://chem.nlm.nih.gov/chemidplus/rn/3623–51-6; cited from earlier work
# [7] = tested on: MDA-MB-231; test: NRU antiproliferative assay; type: cell-based; conditions: Homo sapiens, MDA-MB-231, 24 h, read-out: IC50 (NRU)
# [8] = tested on: DHFR mRNA; test: Real-time qPCR expression analysis; type: cell-based, human; conditions: A549, with respect to control, GAPDH internal control
# [9] = tested on: PC-3; test: Cell cycle analysis by flow cytometry; type: cell-based, human; conditions: PC-3, 24 h
# [10] = tested on: HYAL mRNA; test: Real-time qPCR expression analysis; type: cell-based, human; conditions: GAPDH internal control
# [11] = tested on: PI3K; test: PI3K quantification by ELISA in A431 cells; type: cell-based, human; conditions: A431, 100 µM, 24 h
# [12] = tested on: A549; test: NRU antiproliferative assay; type: cell-based; conditions: Homo sapiens, A549, 24 h, read-out: IC50 (NRU)
# [13] = tested on: A431; test: SRB antiproliferative assay; type: cell-based; conditions: Homo sapiens, A-431, 24 h, read-out: IC50 (SRB)
# [14] = target: T1, COX-2 (Homo sapiens, UniProt P35354); test: cell-based; conditions: IC50 COX-2, cell based
# T1 sequence (P35354 18-604): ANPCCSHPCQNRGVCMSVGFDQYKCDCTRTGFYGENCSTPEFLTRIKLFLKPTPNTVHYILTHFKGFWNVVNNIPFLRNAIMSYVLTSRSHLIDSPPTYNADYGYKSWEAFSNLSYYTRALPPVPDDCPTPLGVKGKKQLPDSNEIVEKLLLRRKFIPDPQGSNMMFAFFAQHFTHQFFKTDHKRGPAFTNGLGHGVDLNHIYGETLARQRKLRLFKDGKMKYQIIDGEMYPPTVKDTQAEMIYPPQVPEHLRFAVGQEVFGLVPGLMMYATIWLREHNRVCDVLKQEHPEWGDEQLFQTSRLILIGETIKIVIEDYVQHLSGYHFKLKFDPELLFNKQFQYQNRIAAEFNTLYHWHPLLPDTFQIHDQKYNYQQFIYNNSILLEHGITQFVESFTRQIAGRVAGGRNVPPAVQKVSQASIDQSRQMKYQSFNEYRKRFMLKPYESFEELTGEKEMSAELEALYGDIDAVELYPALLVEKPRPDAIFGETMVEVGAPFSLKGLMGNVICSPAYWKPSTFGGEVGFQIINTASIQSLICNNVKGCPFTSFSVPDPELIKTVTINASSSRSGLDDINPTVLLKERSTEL
# [15] = tested on: ODC mRNA; test: Real-time qPCR expression analysis; type: cell-based, human; conditions: GAPDH internal control
# [16] = target: tubulin protein (Sus scrofa, UniProt P02550+P02554); test: Tubulin polymerization assay; type: biochemical; conditions: 100 μM
# [17] = target: LOX-5 (Homo sapiens, UniProt P09917); test: LOX-5 assay, cell-based; conditions: IC50 LOX-5, cell based, K562
# [18] = tested on: PC-3; test: MTT antiproliferative assay; type: cell-based; conditions: Homo sapiens, PC-3, 24 h, read-out: IC50 (MTT)
# [19] = tested on: Ehrlich Ascites Carcinoma (EAC); test: Ehrlich ascites carcinoma; type: in vivo, Swiss albino mice; conditions: for reduction of EAC tumor cells (tumor growth inhibition): day 1-9
# [20] = tested on: A431; test: MTT antiproliferative assay; type: cell-based; conditions: Homo sapiens, A-431, 24 h, read-out: IC50 (MTT)
# [21] = tested on: hyaluronidase (HYAL); test: Hyaluronidase assay, cell-based; design: species or system human
# [22] = tested on: hyaluronidase; test: Hyaluronidase activity in EAC cells of treated mice; type: in vivo; conditions: 75 mg/kg bw, i.p.
# [23] = tested on: mTOR; test: mTOR quantification by ELISA in A431 cells; type: cell-based, human; conditions: A431, 100 µM, 24 h
# [24] = tested on: A431; test: Cell cycle analysis by flow cytometry; type: cell-based, human; conditions: A431, 24 h
# [25] = tested on: human erythrocytes; test: Ex vivo osmotic fragility test; conditions: 100 μM
# [26] = tested on: FaDu; test: MTT antiproliferative assay; type: cell-based; conditions: Homo sapiens, 24 h, read-out: IC50 (MTT)
# [27] = tested on: MDA-MB-231; test: Cell cycle analysis by flow cytometry; type: cell-based, human; conditions: MDA-MB-231, 24 h
# [28] = tested on: A431 cells; test: DCFH-DA ROS assay; type: cell-based, human; conditions: A431, highest concentration, 24 h, spectrofluorometer
# [29] = tested on: A431 cells; test: Mitochondrial membrane potential; type: cell-based, human; conditions: for total of FITC mean (Rh123): A431, flow cytometry
# [30] = MDA-MB-231, with respect to control
# Sequence of Cathepsin D (CATD) (P07339 65-412): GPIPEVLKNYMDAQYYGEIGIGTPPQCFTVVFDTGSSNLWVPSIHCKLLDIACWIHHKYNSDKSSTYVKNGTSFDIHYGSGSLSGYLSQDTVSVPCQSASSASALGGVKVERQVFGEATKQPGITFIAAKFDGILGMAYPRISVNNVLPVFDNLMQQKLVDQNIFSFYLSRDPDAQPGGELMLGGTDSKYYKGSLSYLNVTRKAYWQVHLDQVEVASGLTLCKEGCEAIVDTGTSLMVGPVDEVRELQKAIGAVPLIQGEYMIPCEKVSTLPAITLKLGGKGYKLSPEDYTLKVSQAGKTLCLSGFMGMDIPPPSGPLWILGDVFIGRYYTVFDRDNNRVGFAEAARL
# Sequence of LOX-5 (P09917 whole entry): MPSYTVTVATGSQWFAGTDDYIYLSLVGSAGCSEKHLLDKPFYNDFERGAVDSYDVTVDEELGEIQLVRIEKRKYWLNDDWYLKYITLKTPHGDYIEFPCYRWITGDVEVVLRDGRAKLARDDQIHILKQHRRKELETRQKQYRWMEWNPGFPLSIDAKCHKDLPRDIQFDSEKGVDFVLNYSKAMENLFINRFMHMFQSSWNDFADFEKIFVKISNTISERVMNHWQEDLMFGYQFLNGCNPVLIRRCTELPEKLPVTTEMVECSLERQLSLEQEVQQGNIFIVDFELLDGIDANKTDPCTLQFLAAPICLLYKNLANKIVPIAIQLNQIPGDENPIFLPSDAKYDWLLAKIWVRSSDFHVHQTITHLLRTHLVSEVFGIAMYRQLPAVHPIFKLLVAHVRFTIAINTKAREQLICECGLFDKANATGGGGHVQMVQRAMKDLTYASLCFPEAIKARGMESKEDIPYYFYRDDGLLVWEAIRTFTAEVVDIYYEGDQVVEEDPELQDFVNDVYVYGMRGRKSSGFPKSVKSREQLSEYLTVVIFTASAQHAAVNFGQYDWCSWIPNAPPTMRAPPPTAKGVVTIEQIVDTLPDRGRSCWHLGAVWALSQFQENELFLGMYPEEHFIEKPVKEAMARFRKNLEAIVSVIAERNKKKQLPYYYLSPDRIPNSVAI
# Sequence of tubulin protein (P02550 whole entry): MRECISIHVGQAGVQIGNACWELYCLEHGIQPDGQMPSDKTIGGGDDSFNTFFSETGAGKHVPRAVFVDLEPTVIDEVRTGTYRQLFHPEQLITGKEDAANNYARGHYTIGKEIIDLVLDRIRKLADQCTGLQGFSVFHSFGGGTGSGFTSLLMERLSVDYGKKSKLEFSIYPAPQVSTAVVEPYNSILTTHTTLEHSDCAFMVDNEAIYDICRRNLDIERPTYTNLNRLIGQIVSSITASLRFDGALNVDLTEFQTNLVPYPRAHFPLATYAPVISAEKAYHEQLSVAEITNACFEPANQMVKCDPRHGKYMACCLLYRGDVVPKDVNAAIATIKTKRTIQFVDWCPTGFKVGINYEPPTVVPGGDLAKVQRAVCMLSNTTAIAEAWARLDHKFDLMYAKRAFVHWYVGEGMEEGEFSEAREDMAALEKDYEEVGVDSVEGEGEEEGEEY
# Sequence of tubulin protein (P02554 whole entry): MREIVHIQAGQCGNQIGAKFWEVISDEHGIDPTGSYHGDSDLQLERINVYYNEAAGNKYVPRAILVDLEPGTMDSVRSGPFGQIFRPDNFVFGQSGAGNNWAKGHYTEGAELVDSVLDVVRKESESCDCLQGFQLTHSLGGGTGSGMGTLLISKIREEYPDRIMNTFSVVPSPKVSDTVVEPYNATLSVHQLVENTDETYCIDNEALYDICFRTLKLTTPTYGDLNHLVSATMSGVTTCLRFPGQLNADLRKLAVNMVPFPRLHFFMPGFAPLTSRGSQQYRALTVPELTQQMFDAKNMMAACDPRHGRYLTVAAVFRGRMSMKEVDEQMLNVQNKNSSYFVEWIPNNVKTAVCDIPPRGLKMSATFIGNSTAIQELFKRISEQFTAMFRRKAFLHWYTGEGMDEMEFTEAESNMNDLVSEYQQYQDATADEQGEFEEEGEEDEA
compound,measurement,setting,value
"CC(C)[C@@H]1CC[C@@H](C)C[C@@H]1O [neomenthol, (+)-Neomenthol]",IC50,[1],16.4 to 99.3 µM
same,IC50,[2],30.4 ± 6.44 µM
same,CAT D mRNA expression level,"[3]; A431, with respect to control",1.19 fold change
same,CAT D mRNA expression level,"[3]; A549, with respect to control",1.37 fold change
same,CAT D mRNA expression level,"[3]; FaDu, with respect to control",1.31 fold change
same,CAT D mRNA expression level,"[3]; K562, with respect to control",1.24 fold change
same,CAT D mRNA expression level,[3]; [30],1.15 fold change
same,CAT D mRNA expression level,"[3]; PC-3, with respect to control",1.35 fold change
same,AKT level (ng/mg of protein),[4],0.125 ± 0.004 ng/mg
same,acute oral toxicity outcome,[5],safe and non-toxic
same,LD50,[6],4000 mg/kg
same,IC50,[7],34.7 ± 9.96 µM
same,DHFR mRNA expression level,[8],1.17 fold change
same,cell cycle phase arrested,[9],arrest of the G0/G1 phase
same,HYAL mRNA expression level,"[10]; A431, with respect to control",1.52 fold change
same,HYAL mRNA expression level,"[10]; FaDu, with respect to control",1.06 fold change
same,HYAL mRNA expression level,"[10]; PC-3, with respect to control",1.37 fold change
same,PI3K level (ng/mg of protein),[11],0.006 ± 0.00021 ng/mg
same,IC50,[12],48.1 ± 4.97 µM
same,IC50,[13],82.1 ± 1.97 µM
same,IC50,[14]; A431,39.1 ± 6.39 µM
same,IC50,[14]; FaDu,87.2 ± 5.24 µM
same,IC50,[14]; PC-3,62.2 ± 10.7 µM
same,ODC mRNA expression level,"[15]; A431, with respect to control",1.15 fold change
same,ODC mRNA expression level,"[15]; A549, with respect to control",1.18 fold change
same,ODC mRNA expression level,"[15]; FaDu, with respect to control",1.08 fold change
same,ODC mRNA expression level,[15]; [30],1.05 fold change
same,ODC mRNA expression level,"[15]; PC-3, with respect to control",1.22 fold change
same,effect on tubulin polymerization,[16],inhibit the polymerization of α and β tubulin
same,IC50,[17],72.2 ± 2.19 µM
same,IC50,[18],20.1 ± 0.82 µM
same,reduction of EAC tumor cells (tumor growth inhibition),[19]; 50 mg/kg bw i.p.,23.98%
same,survival rate higher compared to EAC harbored mice,[19]; 75 mg/kg body weight,17%
same,survival of EAC harbored mice (survived till),"[19]; 75 mg/kg body weight, untreated EAC mice died within 24 days",27 days
same,reduction of EAC tumor cells (tumor growth inhibition),[19]; 75 mg/kg bw i.p.,58.84%
same,IC50,[20],17.3 ± 6.49 µM
same,IC50,"[21]; read-out: IC50 HYAL, A431",12.81 ± 0.01 µM
same,IC50,"[21]; read-out: IC50 HYAL, A549",36.8 ± 5.65 µM
same,inhibition (modulation) of hyaluronidase activity in EAC cells of mice,[22],up to 10%
same,mTOR level (ng/mg of protein),[23],0.336 ± 0.108 ng/mg
same,cell cycle phase arrested,[24],G2/M phase
same,toxicity to erythrocytes (osmotic fragility),[25],non-toxic to erythrocytes
same,IC50,[26],99.31 ± 0.59 µM
same,cell cycle phase arrested,[27],arrests the S-phase
same,percent increase in the ROS level,[28],20.45 ± 0.35%
same,total of FITC mean (Rh123),[29]; 10 µM,3101 ± 1.41
same,total of FITC mean (Rh123),[29]; 100 µM,2913 ± 1.41
same,percent decrease of mitochondrial membrane potential concerning control,"[29]; A431, highest concentration, 24 h, spectrofluorometer",13.05 ± 2.6%
